# Patent publication US10759796B2, “CXCR4 inhibitors and uses thereof” (X4 Pharmaceuticals, Inc., priority 2016, dated 2020)
# Where two headings read alike, the source gives them in different places.
# Legend:
# [1] = Fraction of drug unbound to brain proteins, mouse; assay type: in vitro ADME; details: Mouse brain proteins (Table 10); read-out: Fu (b) %
# [2] = Mouse brain uptake assay, 0-24 h, 4 time points; assay type: in vivo; details: male, 3 mg/kg IV, 4 time points; for Kp / Kp uu: CD1, brain and plasma; for Kp / Kp uu / clearance / half-life: Mouse; for clearance / half-life: CD1, plasma; for half-life: read-out: t½ (converted)
# Description: The study design (9 animals) consisted of administrating the drug (IV: 3 mg/kg (5 mL/kg) via tail vein injection) and collecting samples at terminal bleeding for plasma and brain at 0.083, 0.5 and 1 h. The blood collection was performed as follows: the animal was restrained manually and approximately 150 μL blood/time point was collected into a dipotassium EDTA tube via retro orbital puncture under anesthesia with isoflurane. The blood sample was put on ice and centrifuged to obtain a plasma sample (2000 g, 5 min under 4° C.) within 15 minutes. The brain collection was performed as follows: a mid-line incision was made in the animal's scalp and the skin was retracted. Using small bone cutters and rongeurs, the skull overlying the brain was removed. The brain was removed using a spatula and the brain rinsed with cold saline. The brain was placed in screw-top tubes, and the tubes were stored at −70° C. until analysis. The IV dosing solution was prepared in 50 mM citrate buffer (pH 4.0) at 0.6 mg/mL.
# An aliquot of 30 μL sample was added to 150 μL MeCN containing 50 ng/mL IS (Dexamethasone). The mixture was vortexed for 5 min and centrifuged at 14,000 rpm for 5 min. An aliquot of 5 μL supernatant was injected for LC-MS/MS analysis.
# An aliquot of 30 μL brain homogenate (brain:PBS=1:3, w/v) sample was added to 150 μL IS in ACN (Dexamethasone, 50 ng/mL). The mixture was vortexed for 5 min and centrifuged at 14,000 rpm for 5 min. An aliquot of 5 μL supernatant was injected for LC-MS/MS analysis.
# The sample analysis was performed on LCMS/MS-003 (API4000, triple quadruple) under the following conditions: positive ion, ESI, MRM detection using dexamethasone as internal standard. HPLC conditions: mobile phase A: H2O (0.025% formic acid (FA) with 1 mM NH4OAc); mobile phase B: MeOH (0.025% FA with 1 mM NH4OAc) on Waters X-Bridge C18 (2.1×50 mm, 2.5 μm) column at 60° C.
# A similar experiment was performed with 4 time points taken from 0-24 h.
# in vitro = details: human, Caco-2, pH 7.4
# How it was run: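 Compounds at 10 μM in HBSS pH 7.4 (0.1–0.3% DMSO) were dosed on Caco-2 monolayers, apical-to-basolateral and basolateral-to-apical, for 90 min at 37 °C, in duplicate. Monolayer integrity was checked by TEER and lucifer yellow flux, read by fluorescence at 485/535 nm. Compound was quantified by LC-MS/MS and Papp calculated.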
# [3] = target: CXCR-4 transfected U87 cell line (U87.CXCR4) (Homo sapiens (Human), UniProt P61073); assay: Intracellular CXCL-12-induced calcium mobilization assay (FLIPR); assay type: cell-based; details: U87.CXCR4 cells, CXCL-12 25-50 ng/mL; read-out: IC50 CXCL-12 Ca2+ flux U87.CXCR4+
# Chain of CXCR-4 transfected U87 cell line (U87.CXCR4) (P61073 whole entry): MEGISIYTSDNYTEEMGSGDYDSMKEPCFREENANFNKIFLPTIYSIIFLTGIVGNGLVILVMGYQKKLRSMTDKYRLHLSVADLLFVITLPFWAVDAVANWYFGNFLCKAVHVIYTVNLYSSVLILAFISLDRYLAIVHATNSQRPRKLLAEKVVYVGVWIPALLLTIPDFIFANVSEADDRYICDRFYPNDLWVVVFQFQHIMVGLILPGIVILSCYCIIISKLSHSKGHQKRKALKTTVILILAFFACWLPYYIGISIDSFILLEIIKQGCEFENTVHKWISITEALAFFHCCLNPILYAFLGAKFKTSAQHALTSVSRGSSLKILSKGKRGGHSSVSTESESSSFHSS
# How it was run: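 U87.CXCR4 cells were seeded at 20,000 per well, cultured 12 hours, then loaded with 4 μM Fluo-2 AM for 45 min at 37° C. in HBSS with 20 mM HEPES and 0.2% BSA, pH 7.4. Calcium flux triggered by CXCL-12 (25-50 ng/mL) was tracked over time by FLIPR fluorescence at 37° C.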
# [4] = Fraction of drug unbound to plasma proteins, mouse; assay type: in vitro ADME; details: Mouse plasma proteins (Table 10); read-out: Fu (p) %
# [5] = target: Jurkat cells expressing CXCR4 (Homo sapiens (Human), UniProt P61073); assay: Chemokine (CXCL12-AF647) binding inhibition assay; details: CXCL12-AF647 25 ng/mL, read-out: IC50 CXCL-12 binding Jurkat
# Chain of Jurkat cells expressing CXCR4 (P61073 whole entry): as above
# How it was run: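 Cells in HBSS, 20 mM HEPES, 0.2% BSA, pH 7.4, preincubated 15 min at room temperature with compound, then 25 ng/mL CXCL12-AF647 for 30 min. After washing and paraformaldehyde fixation, bound ligand read by flow cytometry; percent inhibition calculated from MFI relative to unlabeled and ligand-only controls.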
# [6] = CD1, Mouse brain, read-out: AUClast (b)
# [7] = CD1, Mouse plasma, read-out: AUClast (p)
Compound,fraction unbound [1],"AUC(0-t) [2, 6] [ng·h/mL]","AUC(0-t) [2, 7] [ng·h/mL]",Kp [2],Kp uu [2],clearance [2] [mL/min/kg],half-life [2] [h],"Papp A→B at 90 min, 10 μM (in vitro) [×10⁻⁶ cm/s]","Papp B→A at 90 min, 10 μM (in vitro) [×10⁻⁶ cm/s]","efflux ratio at 90 min, 10 μM (in vitro)",IC50 [3] [nM],fraction unbound [4],IC50 [5] [nM]
Cc1c([C@@H]2CCC[C@H](c3ncccc3Cl)N2)nc2cccc(N3CCN(C)CC3)n12 (stereo in doubt) [Compound I-193],0.004,13700,2130,6.41,0.54,22,6.42,10 to 30,10 to 30,0.1 to 10,0.01 to 100,0.047,0.01 to 100
CN1CCN(c2cccc3nc([C@H]4CCC[C@@H](c5ncccc5Cl)N4C)c(Cl)n23)CC1 [Compound I-115],0.005,26900,1400,19.2,3.68,35.3,3.96,0.1 to 10,0.1 to 10,0.1 to 10,0.01 to 100,0.026,0.01 to 100
CCOCc1c([C@H]2CCC[C@@H](c3ncccc3Cl)N2C)nc2cccc(N3CCN(C)CC3)n12 [Compound I-117],0.006,32300,1480,21.8,3.35,33.5,3.56,10 to 30,10 to 30,0.1 to 10,0.01 to 100,0.039,0.01 to 100
COc1cccnc1[C@@H]1CCC[C@H](c2cn3c(N4CCNC5(CC5)C4)cccc3n2)N1 [Compound I-172],–,–,–,–,–,–,–,0.1 to 10,> 30,> 30,≥ 1000,–,≥ 1000
COc1cccnc1[C@@H]1CCC[C@H](c2nc3cccc(N4CCN(C)CC4)n3c2Cl)N1 [Compound I-173],–,–,–,–,–,–,–,0.1 to 10,10 to 30,0.1 to 10,≥ 1000,–,100 to 1000
COc1cccnc1[C@@H]1CCC[C@H](c2nc3cccc(N4CCNC5(CC5)C4)n3c2Cl)N1 [Compound I-175],–,–,–,–,–,–,–,0.1 to 10,10 to 30,0.1 to 10,≥ 1000,–,≥ 1000
CN1CCN(c2cccc3nc([C@H]4CCC[C@@H](c5ncccc5C5CC5)N4)cn23)CC1 [Compound I-179],–,–,–,–,–,–,–,0.1 to 10,10 to 30,0.1 to 10,0.01 to 100,–,0.01 to 100
CN1CCN(c2cccc3nc([C@H]4CCC[C@@H](c5ncccc5C5CC5)N4)c(Cl)n23)CC1 [Compound I-180],–,–,–,–,–,–,–,10 to 30,10 to 30,0.1 to 10,0.01 to 100,–,0.01 to 100
CN1C2CCC1CN(c1cccc3nc([C@H]4CCC[C@@H](c5ncccc5Cl)N4)cn13)C2 [Compound I-181],–,–,–,–,–,–,–,0.1 to 10,10 to 30,0.1 to 10,0.01 to 100,–,0.01 to 100
CN1CC2CCC(C1)N2c1cccc2nc([C@H]3CCC[C@@H](c4ncccc4Cl)N3)cn12 [Compound I-182],–,–,–,–,–,–,–,10 to 30,10 to 30,0.1 to 10,≥ 1000,–,0.01 to 100
Cc1cccnc1[C@@H]1CCC[C@H](c2cn3c(N4C5CCC4CN(C)C5)cccc3n2)N1 [Compound I-186],–,–,–,–,–,–,–,0.1 to 10,10 to 30,0.1 to 10,0.01 to 100,–,0.01 to 100
Cc1cccnc1[C@@H]1CCC[C@H](c2cn3c(N4CCNC5(CC5)C4)cccc3n2)N1 [Compound I-190],–,–,–,–,–,–,–,0.1 to 10,> 30,10 to 30,≥ 1000,–,100 to 1000
COc1cccnc1[C@@H]1CCC[C@H](c2cn3c(N4CCN(C)CC4)cccc3n2)N1 [Compound I-191],–,–,–,–,–,–,–,0.1 to 10,> 30,10 to 30,100 to 1000,–,0.01 to 100
Cc1cccnc1[C@H]1CCC[C@@H](c2nc3ccccn3c2-c2ccncc2)N1 [Compound I-207],–,–,–,–,–,–,–,10 to 30,> 30,0.1 to 10,≥ 1000,–,≥ 1000
Cc1cccnc1[C@@H]1CCC[C@H](c2nc3ccccn3c2-c2cccnc2)N1 [Compound I-208],–,–,–,–,–,–,–,10 to 30,10 to 30,0.1 to 10,≥ 1000,–,≥ 1000
Cc1cccnc1[C@@H]1CCC[C@H](c2cn3c(N4CCN(C)C(=O)C4)cccc3n2)N1 [Compound I-210],–,–,–,–,–,–,–,0.1 to 10,10 to 30,> 30,≥ 1000,–,≥ 1000
